# Measured values as given in patent publication US7553864B2, “Compounds for the treatment of inflammatory disorders and microbial diseases” (Schering Corporation, priority 2005, dated 2009).
# Tested on: LpxC enzyme
# Assay: LpxC enzyme assay (RapidFire high-throughput mass spectrometry)
# Assay type: biochemical
# Outline: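 0.2 nM enzyme with 1.0 μM UDP-3-O-(R-3-hydroxymyristoyl)-N-acetylglucosamine in 25 mM HEPES pH 7.3, 150 mM NaCl, 2.0 mM DTT, 0.01% BSA, 2% DMSO; 60 min at room temperature, quenched with HCl. Substrate and product quantified by RapidFire mass spectrometry; percent conversion gives percent inhibition versus DMSO control.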
# [1] = concentration 0.10 (unit not given)
# [2] = concentration 0.20 (unit not given)
# [3] = concentration 0.39 (unit not given)
# [4] = concentration 0.78 (unit not given)
# [5] = concentration 1.56 (unit not given)
# [6] = concentration 3.13 (unit not given)
# [7] = concentration 6.25 (unit not given)
# [8] = concentration 12.50 (unit not given)
# [9] = concentration 25 (unit not given)
# [10] = concentration 50 (unit not given)
SMILES,LpxC enzyme assay rating (% inhibition at indicated concentrations) [1],LpxC enzyme assay rating (% inhibition at indicated concentrations) [2],LpxC enzyme assay rating (% inhibition at indicated concentrations) [3],LpxC enzyme assay rating (% inhibition at indicated concentrations) [4],LpxC enzyme assay rating (% inhibition at indicated concentrations) [5],LpxC enzyme assay rating (% inhibition at indicated concentrations) [6],LpxC enzyme assay rating (% inhibition at indicated concentrations) [7],LpxC enzyme assay rating (% inhibition at indicated concentrations) [8],LpxC enzyme assay rating (% inhibition at indicated concentrations) [9],LpxC enzyme assay rating (% inhibition at indicated concentrations) [10]
CN(C)C(=O)[C@H](O)[C@@H](O)C(=O)Nc1ccc(-c2ccccc2)cc1 [Compound 45],C (less than 10% inhibition),C (less than 10% inhibition),C (less than 10% inhibition),C (less than 10% inhibition),C (less than 10% inhibition),C (less than 10% inhibition),C (less than 10% inhibition),C (less than 10% inhibition),C (less than 10% inhibition),C (less than 10% inhibition)
CN(C)C(=O)[C@H](O)[C@@H](O)C(=O)Nc1ccc(-c2ccc(C(F)(F)F)cc2)cc1 [Compound 46],C (less than 10% inhibition),C (less than 10% inhibition),C (less than 10% inhibition),C (less than 10% inhibition),C (less than 10% inhibition),C (less than 10% inhibition),C (less than 10% inhibition),B (10-30% inhibition),B (10-30% inhibition),A (greater than 30% inhibition)
CN(C)C(=O)[C@H](O)[C@@H](O)C(=O)N1CCN(c2ccc(-c3ccccc3)cc2)CC1 [Compound 47],B (10-30% inhibition),B (10-30% inhibition),C (less than 10% inhibition),B (10-30% inhibition),C (less than 10% inhibition),B (10-30% inhibition),B (10-30% inhibition),B (10-30% inhibition),C (less than 10% inhibition),B (10-30% inhibition)
CCCCc1ccc(NC(=O)[C@H](O)[C@@H](O)C(=O)N(C)C)cc1 [Compound 48],B (10-30% inhibition),C (less than 10% inhibition),C (less than 10% inhibition),C (less than 10% inhibition),C (less than 10% inhibition),B (10-30% inhibition),C (less than 10% inhibition),B (10-30% inhibition),C (less than 10% inhibition),B (10-30% inhibition)
CCCc1ccc(NC(=O)[C@H](O)[C@@H](O)C(=O)N(C)C)cc1 [Compound 49],C (less than 10% inhibition),C (less than 10% inhibition),B (10-30% inhibition),C (less than 10% inhibition),C (less than 10% inhibition),C (less than 10% inhibition),C (less than 10% inhibition),C (less than 10% inhibition),B (10-30% inhibition),C (less than 10% inhibition)
CCC(C)c1ccc(NC(=O)[C@H](O)[C@@H](O)C(=O)N(C)C)cc1 (stereo partly drawn) [Compound 50],C (less than 10% inhibition),C (less than 10% inhibition),C (less than 10% inhibition),B (10-30% inhibition),C (less than 10% inhibition),C (less than 10% inhibition),B (10-30% inhibition),B (10-30% inhibition),C (less than 10% inhibition),B (10-30% inhibition)
CN(C)C(=O)[C@H](O)[C@@H](O)C(=O)N1CCC(c2ccc(C(F)(F)F)cc2)CC1 [Compound 51],B (10-30% inhibition),C (less than 10% inhibition),C (less than 10% inhibition),C (less than 10% inhibition),B (10-30% inhibition),C (less than 10% inhibition),C (less than 10% inhibition),C (less than 10% inhibition),B (10-30% inhibition),B (10-30% inhibition)
CN(C)C(=O)[C@H](O)[C@@H](O)C(=O)N1CCC(c2ccc3ccccc3c2)CC1 [Compound 52],C (less than 10% inhibition),C (less than 10% inhibition),C (less than 10% inhibition),C (less than 10% inhibition),C (less than 10% inhibition),C (less than 10% inhibition),B (10-30% inhibition),B (10-30% inhibition),B (10-30% inhibition),A (greater than 30% inhibition)
CN(C)C(=O)[C@H](O)[C@@H](O)C(=O)Nc1ccc(Oc2ccccc2)cc1 [Compound 53],C (less than 10% inhibition),C (less than 10% inhibition),C (less than 10% inhibition),B (10-30% inhibition),C (less than 10% inhibition),C (less than 10% inhibition),C (less than 10% inhibition),C (less than 10% inhibition),C (less than 10% inhibition),C (less than 10% inhibition)
CN(C)C(=O)[C@H](O)[C@@H](O)C(=O)Nc1ccc(N2CCOCC2)cc1 [Compound 54],C (less than 10% inhibition),C (less than 10% inhibition),C (less than 10% inhibition),C (less than 10% inhibition),C (less than 10% inhibition),B (10-30% inhibition),C (less than 10% inhibition),C (less than 10% inhibition),C (less than 10% inhibition),C (less than 10% inhibition)
CN1CCN(c2ccc(NC(=O)[C@H](O)[C@@H](O)C(=O)N(C)C)cc2)CC1 [Compound 55],C (less than 10% inhibition),B (10-30% inhibition),C (less than 10% inhibition),B (10-30% inhibition),B (10-30% inhibition),B (10-30% inhibition),C (less than 10% inhibition),C (less than 10% inhibition),B (10-30% inhibition),B (10-30% inhibition)
CN(C)CCOc1ccc(NC(=O)[C@H](O)[C@@H](O)C(=O)N(C)C)cc1 [Compound 56],C (less than 10% inhibition),B (10-30% inhibition),C (less than 10% inhibition),C (less than 10% inhibition),C (less than 10% inhibition),C (less than 10% inhibition),B (10-30% inhibition),C (less than 10% inhibition),C (less than 10% inhibition),C (less than 10% inhibition)
